We go through two molecules from patent US20080221045A1, “Hepatic Function-Improving Agent” (Kabushiki Kaisha Hayashibara Seibutsu Kagaku Kenkyujo, priority 2004, published 2008).

The subject of one test is hepatic functions. Put plainly: Administration test of α-glucosyl-hesperidin on hamsters (cholesterol-supplemented feed), serum GOT and GPT. The format is in vivo, golden hamsters. Conditions: for Serum GOT / Serum GPT: 0.25 mmole/kg/day by stomach sonde, 5 weeks, last 3 weeks feed with 1% cholesterol, average ± SD; for Serum GOT: distilled water control 171 ± 46, before 46 ± 8; for Serum GPT: distilled water control 418 ± 106, before 81 ± 18; for serum levels of GOT and GPT compared with the distilled water group (control 1): 0.25 mmole/kg/day. How it is done:
The animal experiment using hamsters was performed to investigate the influences of the intake of α-glucosyl-hesperidin on hepatic functions.
A group of five golden hamsters of five weeks old was fed on liberal amount of “NMF Lab Animal Diet Powder” (produced by Oriental Yeast Co., Ltd.) with the administration of “αG-HESPERIDIN PS®” (a powdery α-glucosyl-hesperidin containing 82.8% of α-glucosyl-hesperidin, commercialized by Hayashibara Shoji, Inc.) dissolved in distilled water. α-Glucosyl-hesperidin was administered to the hamsters through a stomach sonde at a dose of 0.25 mmole (193 mg)/kg/body weight every day. After two-week administrations of α-glucosyl-hesperidin, the hamsters were fed for additional three weeks in the same way as described above except that their feed was supplemented with 1% by weight of cholesterol. At four hours after the final administrations, the hamsters were anesthetized and under went laparotomy, and their large-venous blood samples were taken. After the separation of the hamsters' serums by a conventional method, the levels of GOT and GPT were measured. As the control 1, another group was fed and its blood samples were taken in the same way except that distilled water instead of α-glucosyl-hesperidin was administered to the hamsters. As the control 2, a third group was fed and their blood samples were taken in the same way except that hesperidin (a regent grade specimen, commercialized by Wako Pure Chemical Industries, Ltd.) instead of α-glucosyl-hesperidin suspended in distilled water was administered to the hamsters at a dose of 0.25 mmole (153 mg)/kg/body weight. The other group was fed on liberal amount of “NMF Lab Animal Diet Powder” with no administration of the test articles and their blood samples were taken in the same way as describe above, and the serum levels of GOT and GPT were measured to obtain the data before the administrations.

The conditions of test [1]: mammals including humans with an elevated TG level; Yamada et al. 2003, Miwa et al. 2004; cited from earlier work.

Turning to `COc1ccc([C@@H]2CC(=O)c3c(O)cc(O[C@@H]4O[C@H](CO[C@@H]5O[C@@H](C)[C@H](O)[C@@H](O)[C@H]5O)[C@@H](O)[C@H](O)[C@H]4O)cc3O2)cc1O` [Hesperidin, hesperidin, reference compound], in the test with hepatic functions, the “Serum GOT” value was 101 ± 30 IU/L and the “Serum GPT” value was 298 ± 76 IU/L. Further, the “serum levels of GOT and GPT compared with the distilled water group (control 1)” value in the test on hepatic functions (hamsters) is reported as “kept lower”.
Regarding `COc1ccc(C2CC(=O)c3c(O)cc(O[C@@H]4OC(CO[C@@H]5OC(C)[C@H](O)C(O)C5O)[C@@H](COC[C@H]5OC(CO)[C@@H](O)C(O)C5O)C(O)C4O)cc3O2)cc1O` (stereo partly drawn) [α-Glucosyl-hesperidin, α-glucosyl-hesperidin], in test [1], the “effect on blood triglyceride (TG) level” value was “marked effect of reducing blood triglyceride”. In addition, in the test on hepatic functions, the “Serum GOT” value came out at 66 ± 44 IU/L and the “Serum GPT” value came out at 226 ± 74 IU/L. In addition, the “serum levels of GOT and GPT compared with the distilled water group (control 1)” value in the test with hepatic functions (hamsters) is given as “kept lower”. For the same molecule, in the test with hepatic functions (hamsters, equal molar dose 0.25 mmole/kg/day), the “effect for keeping hepatic-function indexes at a lower level, compared with hesperidin” value is “greater effect than that of hesperidin”.
